Assays:
[1] = target: T1, HIV-1 RT-associated RNase H activity (wt RT) (Human immunodeficiency virus type 1 group M subtype B, UniProt P04585); test: HIV-1 DNA polymerase-independent RNase H activity, wt RT; type: biochemical; conditions: for IC50: RNase H IC50, wt RT; for percentage in parenthesis in presence of the highest concentration of inhibitor tested (RNase H) / RNase H IC50: wt RT
T1 construct: RT is a heterodimeric (p66/p51) multifunctional enzyme; made in house; host or cells: Escherichia coli strain M15
Description: p6HRT-prot vector was kindly provided by Dr. Stuart Le Grice Laboratory. Heterodimeric RT was expressed essentially as described. Briefly, Escherichia coli strain M15 containing the p6HRT-prot vector were grown up to an OD600 of 0.7 and induced with isopropyl β-D-1-thiogalactopyranoside (IPTG) 1.7 mM for 4 h. Cell pellets were resuspended in Lysis buffer (50 mM sodium phosphate pH 7.8, 0.5 mg/mL lysozyme), incubated on ice for 20 min, added 0.3 M final NaCl, sonicated and centrifuged at 30,000× g for 1 h. The supernatant was loaded into a Ni^2+-sepharose column pre-equilibrated with loading buffer (50 mM sodium phosphate pH 7.8, 0.3 M NaCl, 10% glycerol, 10 mM imidazole) and washed thoroughly with wash buffer (50 mM sodium phosphate pH 6.0, 0.3 M NaCl, 10% glycerol, 80 mM imidazole). RT was gradient-eluted with elute buffer (wash buffer with 0.5 M imidazole). Fractions were collected, protein purity was checked by SDS-PAGE and found to be higher than 90%. RT containing fractions were pooled and diluted 1:1 with dilute buffer (50 mM sodium phosphate pH 7.0, 10% glycerol) then loaded into a Hi-trap Heparine HP GE (Healthcare Lifescience) pre-equilibrated with 10-column volume of loading buffer 2 (50 mM sodium phosphate pH 7.0, 10% glycerol, 150 mM NaCl). Column was then washed with loading buffer 2 and RT was gradient-eluted with elute buffer 2 (50 mM sodium phosphate pH 7.0, 10% glycerol, 150 mM NaCl). Fractions were collected, protein was dialyzed and stored in buffer containing 50 mM Tris HCl pH 7.0, 25 mM NaCl, 1 mM EDTA, 50% glycerol. Catalytic activities and protein concentration were determined. Enzyme-containing fractions were pooled and aliquots were stored at −80 °C.
The RT-associated RNase H activity of wt and mutated HIV RTs was measured as described, in 100 µL reaction volume containing 50 mM Tris HCl pH 7.8, 6 mM MgCl2, 1 mM dithiothreitol (DTT), 80 mM KCl, hybrid RNA/DNA (5’-[…]-3’-Fluorescein, 5’-[…]-3’-Dabcyl), and different amounts of enzymes according to a linear range of dose-response curve—20 ng of wt RT; 50 ng K103N RT; 100 ng V108A RT; 4 ng Y181C RT; 100 ng Q475A RT; 100 ng A502F RT. The reaction mixture was incubated for 1 h at 37 °C, the reaction was stopped by addition of EDTA and products were measured with a Victor 3 (Perkin) at 490/528 nm.

HIV-1 IIIB strain = test: Antiviral assay, HIV-1 replication in TZMbl cells (luciferase); type: cell-based; conditions: TZMbl cells; for EC50: Human immunodeficiency virus 1, TZM-bl, read-out: HIV-1 EC50 TZMbl Cells
Description: Drug-mediated inhibition of virus-induced cytotoxicity was assayed in TZM-BL cells. […] Serial dilutions of drugs were added immediately after infection. Luciferase activity was measured as reported [67]. Two days after infection, the culture medium was removed from each well and 100 µl of Bright Glo reagent (Promega, Luis Obispo, CA) was added to the cells for measurement of luminescence using a Victor 2 luminometer (Perkin). […] Cell viability in CEM cells was quantified 5 days after infection with the MTT-dye reduction method.

[2] = Cytotoxicity in TZMbl cells; type: cell-based; conditions: human
[3] = Cell viability in CEM cells (MTT); type: cell-based; conditions: human, MTT, 5 days
Description: Drug-mediated inhibition of virus-induced cytotoxicity was assayed in TZM-BL cells. Triplicate wells of 96-well plates containing 1 × 10^4 TZMbl cells were infected with HIV-1 IIIB strain at a multiplicity of infection of 0.1. Serial dilutions of drugs were added immediately after infection. Luciferase activity was measured as reported. Two days after infection, the culture medium was removed from each well and 100 µl of Bright Glo reagent (Promega, Luis Obispo, CA) was added to the cells for measurement of luminescence using a Victor 2 luminometer (Perkin). The 50% effective concentration (EC50) was defined as the concentration that caused a 50% reduction of luciferase activity (relative light units) compared to virus control wells. Cell viability in CEM cells was quantified 5 days after infection with the MTT-dye reduction method.

Structure (SMILES) | IC50 [1] | percentage in parenthesis in presence of the highest concentration of inhibitor tested (RNase H) [1] | melting point | EC50 (HIV-1 IIIB strain; HIV-1 IIIB) | CC50 [2] | CC50 at 5 days [3] | RNase H IC50 [1] | HIV-1 EC50 TZMbl Cells (HIV-1 IIIB strain; HIV-1 IIIB) | SI (selectivity index) (HIV-1 IIIB strain)
COc1ccc(NC(=O)c2ccc(C(F)(F)F)nc2Nc2cc(Cl)ccc2C)cc1OC [Compound 35] | 22.4 ± 4 µM |  |  |  |  |  |  |  | 
CCOC(=O)CNC(=O)c1ccc(C(F)(F)F)nc1Nc1cc(Cl)ccc1C [Compound 26, Ethyl 2-(2-((5-chloro-2-methylphenyl)amino)-6-(trifluoromethyl)nicotinamido)acetate] | > 100 µM | >100 (100%) | 128 to 130 °C |  |  |  |  |  | 
Cc1ccc(Cl)cc1Nc1nc(C(F)(F)F)ccc1C(=O)Nc1cccnc1 [Compound 27] | 25 ± 4.9 µM |  |  | > 5.8 µM | 5.8 ± 0.8 µM | 16.2 µM |  |  | 
Cc1ccc(Cl)cc1Nc1nc(C(F)(F)F)ccc1C(N)=O [Compound 6] | > 100 µM | 87% |  |  |  |  | completely inactive |  | 
Cc1ccc(Cl)cc1Nc1nc(C(F)(F)F)ccc1C(=O)NO [Compound 25, 2-((5-Chloro-2-methylphenyl)amino)-N-hydroxy-6-(trifluoromethyl)nicotinamide] | 0.77 ± 0.06 µM |  | 154 to 155 °C | > 10 µM | 14 ± 2.8 µM | 35 µM |  | inactive | 
Cc1ccc(Cl)cc1Nc1nc(C(F)(F)F)ccc1C(=O)NCc1ccc(F)cc1 [Compound 41, 2-((5-Chloro-2-methylphenyl)amino)-N-(4-fluorobenzyl)-6-(trifluoromethyl)nicotinamide] | 23.3 ± 3.1 µM |  |  | > 6 µM | 6 ± 0.6 µM | 11.6 µM |  |  | 
COc1cccc(OC(=O)c2ccc(C(F)(F)F)nc2Nc2cc(Cl)ccc2C)c1 [Compound 19] | > 100 µM | 80% |  |  |  |  |  |  | 
Cc1cccc(NC(=O)c2ccc(C(F)(F)F)nc2Nc2cc(Cl)ccc2C)c1 [Compound 29] | 8.9 ± 0.1 µM |  |  | 2.5 ± 0.4 µM | 3.9 ± 0.9 µM | 6.3 µM |  |  | 1.6
COc1ccc(NC(=O)c2ccc(C(F)(F)F)nc2Nc2cc(Cl)ccc2C)cc1Cl [Compound 32] | > 100 µM | >100 (100%) |  |  |  |  |  |  | 
Cc1ccc(Cl)cc1Nc1nc(C(F)(F)F)ccc1C(=O)Nc1cccc(Cl)c1 [Compound 30] | 4 ± 2.2 µM |  |  | > 3.9 µM | 3.9 ± 0.9 µM | 8.4 µM |  |  | 
Cc1ccc(Cl)cc1Nc1nc(C(F)(F)F)ccc1C(=O)Oc1c(Cl)cc(Cl)cc1Cl [Compound 15] | 31.8 ± 3.5 µM |  |  |  |  |  |  |  | 
Cc1ccc(Cl)cc1Nc1nc(C(F)(F)F)ccc1C(=O)Nc1ccc(Cl)cc1Cl [Compound 31] | 8.8 ± 0.5 µM |  |  | > 4.7 µM | 4.7 ± 1.7 µM | 7.8 µM |  |  | 
Cc1ccc(Cl)cc1Nc1nc(C(F)(F)F)ccc1C(=O)NCc1ccc(Cl)cc1Cl [Compound 45, 2-((5-Chloro-2-methylphenyl)amino)-N-(2,4-dichlorobenzyl)-6-(trifluoromethyl)nicotinamide] | 19.3 ± 0.6 µM |  | 153 to 155 °C | > 10 µM | 5 ± 0.6 µM | 9.15 µM |  |  | 
COc1ccc(OC(=O)c2ccc(C(F)(F)F)nc2Nc2cc(Cl)ccc2C)cc1OC [Compound 20, 3,4-Dimethoxyphenyl-2-((5-chloro-2-methylphenyl)amino)-6-(trifluoromethyl)nicotinate] | 21 ± 11 µM |  |  |  |  |  |  |  | 
CSc1ccc(NC(=O)c2ccc(C(F)(F)F)nc2Nc2cc(Cl)ccc2C)cc1 [Compound 28, 2-((5-Chloro-2-methylphenyl)amino)-N-(4-(methylthio)phenyl)-6-(trifluoromethyl)nicotinamide] | 5.9 ± 0.9 µM |  |  |  |  |  |  |  | 
COc1cc(NC(=O)c2ccc(C(F)(F)F)nc2Nc2cc(Cl)ccc2C)cc(OC)c1OC [Compound 36] | 19.4 ± 1.5 µM |  |  | 1.8 ± 0.6 µM | 2.2 ± 0.4 µM | 10.2 µM |  |  | 1.2
Cc1ccc(Cl)cc1Nc1nc(C(F)(F)F)ccc1C(=O)NCc1ccc(Cl)cc1 [Compound 40, N-(4-chlorobenzyl)-2-((5-chloro-2-methylphenyl)amino)-6-(trifluoromethyl)nicotinamide] | 6.4 ± 0.5 µM |  | 130 to 131 °C | > 4.7 µM | 4.7 ± 0.4 µM | 7.75 µM |  |  | 
Cc1ccc(CNC(=O)c2ccc(C(F)(F)F)nc2Nc2cc(Cl)ccc2C)cc1 [Compound 44, 2-((5-Chloro-2-methylphenyl)amino)-N-(4-methylbenzyl)-6-(trifluoromethyl)nicotinamide] | 21.3 ± 0.5 µM |  |  | > 1.1 µM | 1.1 µM | 3.5 µM |  |  | 
Cc1ccc(Cl)cc1Nc1nc(C(F)(F)F)ccc1C(=O)Oc1cccc(Cl)c1 [Compound 12] | > 100 µM | 98% |  |  |  |  |  |  | 
Cc1ccc(Cl)cc1Nc1nc(C(F)(F)F)ccc1C(=O)N1CCN(c2ccccc2)CC1 [Compound 48, (2-((5-Chloro-2-methylphenyl)amino)-6-(trifluoromethyl)pyridin-3-yl)(4-phenylpiperazin-1-yl)methanone] | > 100 µM | >100 (100%) | 118 to 120 °C |  |  |  |  |  | 
COc1cccc(NC(=O)c2ccc(C(F)(F)F)nc2Nc2cc(Cl)ccc2C)c1 [Compound 33] | > 100 µM | 54% |  |  |  |  | abolished the activity |  | 
Cc1ccc(Cl)cc1Nc1nc(C(F)(F)F)ccc1C(=O)Oc1ccccc1Cl [Compound 11] | > 100 µM | 92% |  |  |  |  |  |  | 
Cc1ccc(Cl)cc1Nc1nc(C(F)(F)F)ccc1C(=O)Oc1ccc(Cl)cc1Cl [Compound 14] | > 100 µM | 98% |  |  |  |  | abolished the activity |  | 
COc1cc(OC(=O)c2ccc(C(F)(F)F)nc2Nc2cc(Cl)ccc2C)cc(OC)c1OC [Compound 22, 3,4,5-Trimethoxyphenyl 2-((5-chloro-2-methylphenyl)amino)-6-(trifluoromethyl)nicotinate] | 17.3 ± 1.3 µM |  | 138 to 140 °C |  |  |  |  |  | 
Cc1ccc(Cl)cc1Nc1nc(C(F)(F)F)ccc1C(=O)Oc1ccc(O)cc1 [Compound 18, 4-Hydroxyphenyl 2-((5-chloro-2-methylphenyl)amino)-6-(trifluoromethyl)nicotinate] | 20 ± 1.3 µM |  | 184 to 186 °C |  |  |  |  |  | 
Cc1ccc(Cl)cc1Nc1nc(C(F)(F)F)ccc1C(=O)Nc1ccc(C(F)(F)F)cc1 [Compound 37] | 7.8 ± 1.2 µM |  |  | > 2.2 µM | 2.2 ± 0.2 µM | 4.3 µM |  |  | 
COc1ccc(CNC(=O)c2ccc(C(F)(F)F)nc2Nc2cc(Cl)ccc2C)cc1 [Compound 43, 2-((5-Chloro-2-methylphenyl)amino)-N-(4-methoxybenzyl)-6-(trifluoromethyl)nicotinamide] | 30.4 ± 3.9 µM |  |  | > 10 µM | 13.2 ± 1.3 µM | 20 µM |  |  | 
COc1cc(NC(=O)c2ccc(C(F)(F)F)nc2Nc2cc(Cl)ccc2C)cc(OC)c1 [Compound 34] | 17.5 ± 3.9 µM |  |  | 2 ± 0.3 µM | 5.3 ± 0.6 µM | 10.4 µM |  |  | 2.6
Cc1ccc(Cl)cc1Nc1nc(C(F)(F)F)ccc1C(=O)NCc1ccccc1Cl [Compound 38, N-(2-chlorobenzyl)-2-((5-chloro-2-methylphenyl)amino)-6-(trifluoromethyl)nicotinamide] | 19.4 ± 1.1 µM |  |  | > 5.7 µM | 5.7 ± 0.7 µM | 12.5 µM |  |  | 

Source: publication PMC7144554, “2-(Arylamino)-6-(trifluoromethyl)nicotinic Acid Derivatives: New HIV-1 RT Dual Inhibitors Active on Viral Replication” (Molecules, 2020)
